# Assays:
# [1] = Death and net body weight of tumor-bearing mice in Example 3; type: in vivo, BALB/c mice; conditions: mean ± SD, n=7
# Experimental: Clinical observation: during an administration period, animal behaviors, death or near-death, etc. were observed using the naked eyes once every morning and afternoon.
# Body weight: during the administration period, body weight was measured on the day of the tumor measurement from the day of treatment.
# (§1) According to a random principle, the conforming mice (a tumor volume of 0.31-0.41 cm^3) were divided into 8 groups by lottery: control group, spore group, high-dose apatinib (AITAN) group, medium-dose apatinib (AITAN) group, low-dose apatinib (AITAN) group, Clostridium ghonii combined low-dose apatinib (AITAN) group, Clostridium ghonii combined medium-dose apatinib (AITAN) group, and Clostridium ghonii combined high-dose apatinib (AITAN) group.
# (§2) Control group: the mice were intratumorally administrated with a same volume of a 0.9% sodium chloride injection; • spore group: the mice were intratumorally administrated at a dose of 1×10^7 cfu/tumor/time twice; • High-dose apatinib (AITAN) group: the mice were gavaged at a dose of 180 mg/kg/d once every day for a total of 7 times; • Medium-dose apatinib (AITAN) group: the mice were gavaged at a dose of 120 mg/kg/d once every day for a total of 7 times; • Low-dose apatinib (AITAN) group: the mice were gavaged at a dose of 60 mg/kg/d once every day for a total of 7 times; and
# (§3) Clostridium ghonii combined apatinib (AITAN) groups: mice were first intratumorally administrated with apatinib (AITAN) once every day for 3 days and then Clostridium ghonii spores at a dose of 1×10^7 cfu/tumor/time once every other day for a total of two times. The dose of the apatinib (AITAN) in the combined high, medium and low-dose apatinib (AITAN) groups was the same as that in the high, medium and low-dose apatinib (AITAN) groups.
# CT26 tumor cells = test: Antitumor effect of Clostridium ghonii spores combined with different doses of apatinib (AITAN) in CT26 mouse model; type: in vivo, BALB/c mice; conditions: for Tumor inhibition rate (row head: Anti-bacterial rate): calculated from tumor weight; for Tumor weight: n=7; for Cure rate: tumors completely eliminated at end of experiment
# Experimental: BALB/c mice were subcutaneously inoculated with CT26 tumor cells to establish a subcutaneous tumor model for colon cancer. 0.2 mL of a cell suspension with a concentration of 7.5×10^6 cells/mL (acceptable range: 6.75×10^6 cells/mL-8.25×10^6 cells/mL) was extracted with a 1-mL disposable sterile syringe and slowly subcutaneously injected into axillae of right forelimbs of mice (pre-sterilized with 75% alcohol). After injection, needle eyes were gently pressed with dry cotton balls.
# Tumor measurement: a maximum long diameter (L) and a maximum transverse diameter (W) of a tumor (including a thickness of a mouse skin) were measured with a vernier caliper, and a tumor volume was calculated according to a formula of
# Tumor weight: a tumor tissue was dissected out and weighed and tumor weight was recorded.
# Tumor inhibition rate (IRTW%)=(average tumor weight of control group-average tumor weight of experimental group)/average tumor weight of control group×100%.
# as §1, §2, §3
# [2] = medium-dose apatinib 120 mg/kg/d
structure (smiles),measurement,setting,value
"N#CC1(c2ccc(NC(=O)c3cccnc3NCc3ccncc3)cc2)CCCC1 [apatinib (AITAN), apatinib]",Net body weight,[1]; high-dose apatinib 180 mg/kg/d,18.44 ± 1.42 g
same,Net body weight,[1]; low-dose apatinib 60 mg/kg/d,18.32 ± 1.12 g
same,Net body weight,[1]; [2],18.02 ± 1.61 g
same,Tumor volume,"CT26 tumor cells; D-1, Table 2 (low-dose apatinib)",1049.42 ± 166.37 mm^3
same,Tumor volume,"CT26 tumor cells; D-1, upper part of Table 2, low-dose apatinib 60 mg/kg/d",931.50 ± 97.91 mm
same,Tumor volume,"CT26 tumor cells; D-4, Table 2 (low-dose apatinib)",1499.45 ± 303.10 mm^3
same,Tumor volume,"CT26 tumor cells; D-4, upper part of Table 2, low-dose apatinib 60 mg/kg/d",1489.82 ± 232.84 mm
same,Tumor volume,"CT26 tumor cells; D-8, Table 2 (low-dose apatinib)",2442.80 ± 882.95 mm^3
same,Tumor volume,"CT26 tumor cells; D-8, upper part of Table 2, low-dose apatinib 60 mg/kg/d",2275.35 ± 348.84 mm
same,Tumor inhibition rate (row head: Anti-bacterial rate),CT26 tumor cells; high-dose apatinib 180 mg/kg/d,21.68%
same,Tumor inhibition rate (row head: Anti-bacterial rate),CT26 tumor cells; low-dose apatinib 60 mg/kg/d,20.21%
same,Tumor inhibition rate (row head: Anti-bacterial rate),CT26 tumor cells; [2],13.89%
same,Tumor weight,CT26 tumor cells; high-dose apatinib 180 mg/kg/d,3.49 ± 0.86 g
same,Tumor weight,CT26 tumor cells; low-dose apatinib 60 mg/kg/d,3.55 ± 0.61 g
same,Tumor weight,CT26 tumor cells; [2],3.84 ± 0.69 g
same,Cure rate,CT26 tumor cells; high-dose apatinib 180 mg/kg/d,0%
same,Cure rate,CT26 tumor cells; low-dose apatinib 60 mg/kg/d,0%
same,Cure rate,CT26 tumor cells; [2],0%
